Measurements taken from ChEMBL document CHEMBL1201862, “PubChem BioAssay data set” (2004).
Each block holds one compound with its values, some of them ahead of it. The source made the active and inactive calls.

Experiments:
[1] = target: T1, Sentrin-specific protease 7 (Homo sapiens, UniProt Q9BQF6); format: functional;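 note: Luminescence-based dose-response confirmation of ultra-high-throughput screening hits, measuring inhibition of SENP7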
T1 sequence (Q9BQF6 whole entry): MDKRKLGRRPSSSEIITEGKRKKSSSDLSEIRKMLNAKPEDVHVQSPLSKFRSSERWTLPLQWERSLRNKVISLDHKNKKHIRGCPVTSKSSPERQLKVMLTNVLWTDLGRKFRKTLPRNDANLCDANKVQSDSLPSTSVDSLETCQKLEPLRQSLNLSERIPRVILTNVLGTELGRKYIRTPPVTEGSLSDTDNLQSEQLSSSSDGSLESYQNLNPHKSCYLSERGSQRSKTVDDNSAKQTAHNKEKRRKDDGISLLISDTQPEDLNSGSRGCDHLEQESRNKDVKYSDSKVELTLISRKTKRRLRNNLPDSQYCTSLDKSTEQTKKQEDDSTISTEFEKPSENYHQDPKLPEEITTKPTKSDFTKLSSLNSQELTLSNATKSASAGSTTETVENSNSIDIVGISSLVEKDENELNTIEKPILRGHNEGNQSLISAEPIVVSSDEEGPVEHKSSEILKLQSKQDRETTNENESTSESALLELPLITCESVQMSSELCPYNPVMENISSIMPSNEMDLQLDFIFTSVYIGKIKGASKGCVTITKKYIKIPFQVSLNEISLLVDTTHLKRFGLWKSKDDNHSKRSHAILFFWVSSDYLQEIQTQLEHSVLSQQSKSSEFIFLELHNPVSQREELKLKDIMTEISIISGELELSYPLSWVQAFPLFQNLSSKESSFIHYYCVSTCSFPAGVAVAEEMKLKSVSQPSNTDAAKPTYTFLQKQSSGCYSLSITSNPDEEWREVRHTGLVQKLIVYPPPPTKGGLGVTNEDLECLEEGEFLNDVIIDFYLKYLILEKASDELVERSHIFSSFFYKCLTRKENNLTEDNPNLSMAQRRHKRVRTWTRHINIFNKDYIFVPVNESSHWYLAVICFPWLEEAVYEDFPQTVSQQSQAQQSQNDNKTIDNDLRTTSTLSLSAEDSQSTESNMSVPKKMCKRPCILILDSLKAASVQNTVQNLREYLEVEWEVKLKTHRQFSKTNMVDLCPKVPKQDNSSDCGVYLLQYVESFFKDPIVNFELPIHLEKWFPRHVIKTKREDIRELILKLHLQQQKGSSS

Caspase-6 = target: T2, Caspase-6 (Homo sapiens, UniProt P55212); assay: human caspase-6 inhibitors, dose response, biochemical, VEID-R110 fluorescence, cherry-pick (AID 720632)
T2 sequence (P55212 whole entry): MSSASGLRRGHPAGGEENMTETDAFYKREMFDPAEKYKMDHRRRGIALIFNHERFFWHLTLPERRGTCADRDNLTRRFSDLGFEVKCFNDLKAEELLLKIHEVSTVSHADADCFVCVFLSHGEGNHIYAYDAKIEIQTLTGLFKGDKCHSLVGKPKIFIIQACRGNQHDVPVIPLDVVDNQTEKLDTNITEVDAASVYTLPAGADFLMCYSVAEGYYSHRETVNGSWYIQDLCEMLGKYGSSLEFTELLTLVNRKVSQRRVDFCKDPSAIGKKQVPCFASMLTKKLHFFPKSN

Caspase-8 = Caspase-8 (Homo sapiens, UniProt Q14790); assay: caspase-8 inhibition counter-screen, dose response, selectivity assay for caspase-6 inhibitor project, biochemical, Z-IETD-R110 fluorescence, cherry-picked samples (AID 743294)
[2] = target: Peroxisome proliferator-activated receptor gamma/Nuclear receptor corepressor 2 (Homo sapiens, UniProt P37231+Q9Y618); format: functional
[3] = target: Dual specificity mitogen-activated protein kinase kinase 1 (Homo sapiens, UniProt Q02750); assay: Navigating the Kinome. Panel member name: MAP2K1; format: functional
[4] = target: Protein kinase C zeta type (Homo sapiens, UniProt Q05513); format: functional;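 note: measured as one member of a broad kinase profiling panel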
[5] = target: RAC-gamma serine/threonine-protein kinase (Homo sapiens, UniProt Q9Y243); format: functional
[6] = target: Protein kinase C delta type (Homo sapiens, UniProt Q05655); format: functional
[7] = target: Proto-oncogene tyrosine-protein kinase receptor Ret (Homo sapiens, UniProt P07949); format: functional;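 note: measured within a kinome-wide profiling panel, RET as the panel member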
[8] = target: Calcium/calmodulin-dependent protein kinase type II subunit gamma (Homo sapiens, UniProt Q13555); format: functional
[9] = target: Tyrosine-protein kinase SYK (Homo sapiens, UniProt P43405); format: functional
[10] = target: Serine/threonine-protein kinase D3 (Homo sapiens, UniProt O94806); format: functional;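 note: determined within a kinase panel screen, with PRKCN as the panel member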
Activin receptor type-1 = Activin receptor type-1 (Homo sapiens, UniProt Q04771); assay: Navigating the Kinome. Panel member name: ACVR1; format: functional
Activin receptor type-1, sequence (Q04771 whole entry): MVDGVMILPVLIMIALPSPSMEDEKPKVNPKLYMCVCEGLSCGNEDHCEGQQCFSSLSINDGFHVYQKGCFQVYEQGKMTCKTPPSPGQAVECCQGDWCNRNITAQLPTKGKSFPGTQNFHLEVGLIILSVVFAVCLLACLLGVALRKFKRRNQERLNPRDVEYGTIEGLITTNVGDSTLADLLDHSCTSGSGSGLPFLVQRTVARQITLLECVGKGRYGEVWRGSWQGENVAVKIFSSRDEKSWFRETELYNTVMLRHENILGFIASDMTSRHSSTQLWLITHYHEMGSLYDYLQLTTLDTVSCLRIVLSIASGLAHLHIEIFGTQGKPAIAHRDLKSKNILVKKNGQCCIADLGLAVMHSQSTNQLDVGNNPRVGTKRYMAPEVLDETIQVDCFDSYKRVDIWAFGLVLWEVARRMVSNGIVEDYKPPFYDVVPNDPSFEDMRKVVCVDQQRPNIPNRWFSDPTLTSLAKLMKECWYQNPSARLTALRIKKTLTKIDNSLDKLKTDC

[11] = target: MAP kinase-activated protein kinase 2 (Homo sapiens, UniProt P49137); format: functional;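 note: measured as one member of a kinome-wide kinase panel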
MAP kinase-activated protein kinase 2, sequence (P49137 whole entry): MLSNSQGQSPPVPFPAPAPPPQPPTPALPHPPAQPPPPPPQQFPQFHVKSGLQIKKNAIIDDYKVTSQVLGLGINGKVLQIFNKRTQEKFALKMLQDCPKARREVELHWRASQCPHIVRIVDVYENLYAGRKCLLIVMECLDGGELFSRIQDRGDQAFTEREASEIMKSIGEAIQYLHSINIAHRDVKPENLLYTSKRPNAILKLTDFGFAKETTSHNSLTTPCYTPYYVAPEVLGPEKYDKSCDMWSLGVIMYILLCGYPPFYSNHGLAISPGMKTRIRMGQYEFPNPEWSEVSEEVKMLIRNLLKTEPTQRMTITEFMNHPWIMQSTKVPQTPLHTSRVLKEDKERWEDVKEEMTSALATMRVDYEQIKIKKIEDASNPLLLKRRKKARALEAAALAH

[12] = target: Cell division cycle 7-related protein kinase (Homo sapiens, UniProt O00311); format: functional;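 note: value obtained from a kinome-wide kinase panel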
[13] = target: Serine/threonine-protein kinase TAO1 (Homo sapiens, UniProt Q7L7X3); format: functional
Serine/threonine-protein kinase TAO1, sequence (Q7L7X3 whole entry): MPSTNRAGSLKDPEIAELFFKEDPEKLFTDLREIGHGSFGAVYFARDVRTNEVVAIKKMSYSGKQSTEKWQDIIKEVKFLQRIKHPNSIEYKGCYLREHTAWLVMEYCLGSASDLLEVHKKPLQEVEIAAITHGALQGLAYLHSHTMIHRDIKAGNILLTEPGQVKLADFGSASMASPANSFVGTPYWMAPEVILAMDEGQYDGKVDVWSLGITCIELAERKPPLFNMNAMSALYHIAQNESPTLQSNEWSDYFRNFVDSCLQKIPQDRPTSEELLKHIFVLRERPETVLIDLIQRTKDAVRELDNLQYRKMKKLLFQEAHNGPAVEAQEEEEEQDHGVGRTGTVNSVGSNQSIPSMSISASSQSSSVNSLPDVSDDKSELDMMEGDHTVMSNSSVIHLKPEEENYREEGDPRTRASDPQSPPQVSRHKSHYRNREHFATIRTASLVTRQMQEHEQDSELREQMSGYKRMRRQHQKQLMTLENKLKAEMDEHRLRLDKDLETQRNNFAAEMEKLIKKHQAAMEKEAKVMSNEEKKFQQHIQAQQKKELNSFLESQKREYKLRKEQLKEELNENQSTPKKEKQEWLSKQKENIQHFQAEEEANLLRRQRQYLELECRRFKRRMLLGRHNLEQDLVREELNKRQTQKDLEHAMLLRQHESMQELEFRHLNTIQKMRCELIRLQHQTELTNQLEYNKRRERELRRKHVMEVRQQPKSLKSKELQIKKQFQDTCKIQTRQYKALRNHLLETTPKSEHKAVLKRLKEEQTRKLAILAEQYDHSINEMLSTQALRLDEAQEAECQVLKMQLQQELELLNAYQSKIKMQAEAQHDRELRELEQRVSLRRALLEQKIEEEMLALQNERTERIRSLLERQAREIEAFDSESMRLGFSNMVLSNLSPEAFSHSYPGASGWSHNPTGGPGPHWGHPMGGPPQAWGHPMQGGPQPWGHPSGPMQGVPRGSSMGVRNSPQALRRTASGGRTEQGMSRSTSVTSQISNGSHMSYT

[14] = target: Receptor-type tyrosine-protein kinase FLT3 (Homo sapiens, UniProt P36888); format: functional;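 note: FLT3 was tested as one member of a kinome-wide kinase panel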
Receptor-type tyrosine-protein kinase FLT3, sequence (P36888 whole entry): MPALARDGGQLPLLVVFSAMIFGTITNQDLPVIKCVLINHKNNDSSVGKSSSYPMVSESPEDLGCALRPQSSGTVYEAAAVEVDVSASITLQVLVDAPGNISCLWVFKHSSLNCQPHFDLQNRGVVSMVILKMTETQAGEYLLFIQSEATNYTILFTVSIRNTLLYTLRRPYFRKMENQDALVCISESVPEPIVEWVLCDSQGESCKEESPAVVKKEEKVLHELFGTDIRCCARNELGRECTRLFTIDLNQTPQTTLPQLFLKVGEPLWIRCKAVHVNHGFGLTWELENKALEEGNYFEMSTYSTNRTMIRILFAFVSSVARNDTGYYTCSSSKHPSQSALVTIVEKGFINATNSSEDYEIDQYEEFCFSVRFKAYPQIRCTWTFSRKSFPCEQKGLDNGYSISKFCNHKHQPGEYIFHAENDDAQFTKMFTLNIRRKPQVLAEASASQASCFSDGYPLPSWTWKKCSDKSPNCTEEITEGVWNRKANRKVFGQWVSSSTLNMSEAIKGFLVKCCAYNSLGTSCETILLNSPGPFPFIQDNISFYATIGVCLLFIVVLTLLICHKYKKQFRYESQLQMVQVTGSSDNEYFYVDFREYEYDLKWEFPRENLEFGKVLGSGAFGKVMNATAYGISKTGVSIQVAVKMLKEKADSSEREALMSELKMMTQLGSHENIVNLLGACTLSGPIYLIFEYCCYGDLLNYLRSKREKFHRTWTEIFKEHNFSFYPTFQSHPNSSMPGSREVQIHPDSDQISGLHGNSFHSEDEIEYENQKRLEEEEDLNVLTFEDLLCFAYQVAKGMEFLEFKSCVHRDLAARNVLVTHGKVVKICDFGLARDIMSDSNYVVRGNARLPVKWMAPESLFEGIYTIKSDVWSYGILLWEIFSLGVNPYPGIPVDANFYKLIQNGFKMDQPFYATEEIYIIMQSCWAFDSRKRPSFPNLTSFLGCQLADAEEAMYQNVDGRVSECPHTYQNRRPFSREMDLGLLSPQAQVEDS

[15] = target: Receptor tyrosine-protein kinase erbB-2 (Homo sapiens, UniProt P04626); assay: Navigating the Kinome. Panel member name: ERBB2; format: functional
[16] = target: Casein kinase I isoform delta (Homo sapiens, UniProt P48730); format: functional;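 note: measured as one member (CSNK1D) of a kinome panel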
[17] = target: Tyrosine-protein kinase ABL1 (Homo sapiens, UniProt P00519); format: functional
Tyrosine-protein kinase ABL1, sequence (P00519 whole entry): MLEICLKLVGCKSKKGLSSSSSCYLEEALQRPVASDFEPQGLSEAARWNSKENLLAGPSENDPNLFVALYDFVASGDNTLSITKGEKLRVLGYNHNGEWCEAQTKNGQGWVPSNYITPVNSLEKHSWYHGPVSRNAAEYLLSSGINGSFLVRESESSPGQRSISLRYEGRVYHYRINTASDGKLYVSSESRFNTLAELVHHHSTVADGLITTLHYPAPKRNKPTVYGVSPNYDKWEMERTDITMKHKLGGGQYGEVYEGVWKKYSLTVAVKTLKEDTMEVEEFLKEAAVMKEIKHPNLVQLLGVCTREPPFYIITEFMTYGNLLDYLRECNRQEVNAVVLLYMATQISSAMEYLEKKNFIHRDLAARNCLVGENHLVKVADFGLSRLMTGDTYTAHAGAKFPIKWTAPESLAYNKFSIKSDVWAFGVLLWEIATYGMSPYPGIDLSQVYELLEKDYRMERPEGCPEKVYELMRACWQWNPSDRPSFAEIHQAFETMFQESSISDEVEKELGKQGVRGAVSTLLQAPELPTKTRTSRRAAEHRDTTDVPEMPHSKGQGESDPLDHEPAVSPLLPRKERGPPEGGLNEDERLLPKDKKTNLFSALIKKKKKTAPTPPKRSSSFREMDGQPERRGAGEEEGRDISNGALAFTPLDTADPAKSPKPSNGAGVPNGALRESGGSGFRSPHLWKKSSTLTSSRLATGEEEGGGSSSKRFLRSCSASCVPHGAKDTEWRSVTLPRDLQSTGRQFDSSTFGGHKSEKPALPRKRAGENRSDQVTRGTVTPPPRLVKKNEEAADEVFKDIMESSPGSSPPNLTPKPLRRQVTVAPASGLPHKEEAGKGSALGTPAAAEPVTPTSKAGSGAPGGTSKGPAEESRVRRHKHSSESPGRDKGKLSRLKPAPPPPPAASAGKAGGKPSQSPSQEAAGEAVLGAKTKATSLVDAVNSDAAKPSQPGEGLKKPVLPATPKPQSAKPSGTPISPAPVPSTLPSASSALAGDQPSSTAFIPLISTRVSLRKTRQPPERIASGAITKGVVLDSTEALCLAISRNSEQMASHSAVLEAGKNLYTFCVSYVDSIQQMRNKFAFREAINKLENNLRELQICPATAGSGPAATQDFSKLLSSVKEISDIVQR

Ephrin type-A receptor 2 = Ephrin type-A receptor 2 (Homo sapiens, UniProt P29317); format: functional;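 note: EPHA2 tested as one member of a kinome-wide kinase panel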
[18] = target: Serine/threonine-protein kinase Nek4 (Homo sapiens, UniProt P51957); format: functional
Serine/threonine-protein kinase Nek4, sequence (P51957 whole entry): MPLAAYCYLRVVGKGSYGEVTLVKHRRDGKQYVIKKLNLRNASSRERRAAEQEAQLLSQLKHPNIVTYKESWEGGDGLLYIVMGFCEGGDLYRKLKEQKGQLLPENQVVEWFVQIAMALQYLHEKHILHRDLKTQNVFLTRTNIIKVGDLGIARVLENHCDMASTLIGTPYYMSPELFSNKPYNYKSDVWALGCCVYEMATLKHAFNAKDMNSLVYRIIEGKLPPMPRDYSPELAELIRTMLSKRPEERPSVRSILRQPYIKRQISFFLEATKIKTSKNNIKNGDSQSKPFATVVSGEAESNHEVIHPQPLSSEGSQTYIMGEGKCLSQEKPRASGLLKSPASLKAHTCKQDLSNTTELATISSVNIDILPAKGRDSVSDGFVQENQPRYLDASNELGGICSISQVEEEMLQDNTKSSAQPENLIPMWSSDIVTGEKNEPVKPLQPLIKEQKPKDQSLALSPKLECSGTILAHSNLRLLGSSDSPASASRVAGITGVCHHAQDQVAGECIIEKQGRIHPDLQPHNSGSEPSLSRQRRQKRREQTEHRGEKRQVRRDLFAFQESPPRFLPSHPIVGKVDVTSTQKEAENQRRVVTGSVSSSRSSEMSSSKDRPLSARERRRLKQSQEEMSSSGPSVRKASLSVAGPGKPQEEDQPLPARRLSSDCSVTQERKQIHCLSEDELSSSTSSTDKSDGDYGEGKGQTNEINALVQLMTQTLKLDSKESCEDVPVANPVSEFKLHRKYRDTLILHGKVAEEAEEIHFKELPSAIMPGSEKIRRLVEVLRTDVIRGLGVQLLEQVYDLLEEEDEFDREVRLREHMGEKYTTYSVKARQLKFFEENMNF

[19] = target: Protein kinase C iota type (Homo sapiens, UniProt P41743); format: functional;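 note: measured within a kinome-wide kinase panel, PRKCI as panel member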
[20] = target: Vascular endothelial growth factor receptor 3 (Homo sapiens, UniProt P35916); format: functional;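 note: value from a kinome-wide profiling panel, with FLT4 as the panel member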
[21] = target: Serine/threonine-protein kinase MRCK alpha (Homo sapiens, UniProt Q5VT25); format: functional
[22] = target: Dual specificity mitogen-activated protein kinase kinase 2 (Homo sapiens, UniProt P36507); assay: Navigating the Kinome. Panel member name: MAP2K2; format: functional
[23] = target: Epidermal growth factor receptor (Homo sapiens, UniProt P00533)

SMILES: Cc1c(NC(=O)C(C)OC(=O)c2ccc([N+](=O)[O-])s2)c(=O)n(-c2ccccc2)n1C (configuration not stated)
IC50 [1]: 10.4 µM (active) | AC50 (Caspase-6): 4.82 µM (active) | AC50 (Caspase-8): 22.8 µM (active)

SMILES: COc1cc(Br)c(C(=O)c2nccc3cc(OC)c(OC)cc23)cc1OC
IC50 [2]: > 39.8 µM (not active)

Ki [3]: > 2.51 µM (inactive) | Ki [4]: > 7.94 µM (inactive) | Ki [5]: 2.51 µM (active) | Ki [6]: 0.158 µM (active) | Ki [7]: > 2.51 µM (inactive) | Ki [8]: > 6.31 µM (inactive) | Ki [9]: > 1.58 µM (inactive) | Ki [10]: 0.398 µM (active) | Ki (Activin receptor type-1): 1 µM (active) | Ki [11]: > 7.94 µM (inactive) | Ki [12]: > 1.26 µM (inactive) | Ki [13]: > 7.94 µM (inactive) | Ki [14]: > 3.16 µM (inactive) | Ki [15]: > 1.58 µM (inactive) | Ki [16]: > 7.94 µM (inactive) | Ki [17]: > 0.631 µM (inactive) | Ki (Ephrin type-A receptor 2): > 3.16 µM (inactive) | Ki [18]: > 6.31 µM (inactive) | Ki [19]: 3.98 µM (active) | Ki [20]: > 6.31 µM (inactive) | Ki [21]: 3.98 µM (active) | Ki [22]: > 2 µM (inactive) | Ki [23]: > 2 µM (inactive)
SMILES: CC(N)C1CCC(C(=O)Nc2ccnc3[nH]ccc23)CC1 (configuration not stated)
